From patent US9938301B2, “Dihydropyrimido fused ring derivative as HBV inhibitor” (QILU PHARMACEUTICAL CO., LTD., priority 2014, dated 2018) come the findings set out here.

The subject of this assay is HBV DNA in HepG2.2.15 cells. The experiment in a line: HBV in vitro dot-blot hybridization test. In kind it is cell-based, Hepatitis B virus. To be noted: Hepatitis B virus. Summed up: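 HepG2.2.15 cells (4×10^4/well) treated in duplicate with 6 five-fold compound dilutions (1% DMSO final), medium with compound renewed on day 5, cells harvested day 8-9. Intracellular HBV DNA quantified by dot-blot with DIG-labelled probe; % inhibition normalised to 1 μM GLS4 (100%) and DMSO (0%), EC50 fitted.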

[1] abbreviates: HepG2.2.15, dot-blot hybridization assay, read-out: Concentration for 50% inhibition of HBV (EC50)value.
Setting [2] is: HepG2.2.15, summary list of target compounds, Examples 1-165 (same as Table 2), read-out: BIOACTIVITY (inhibitory actions on HBV DNA, EC50).

Molecules are shown by their SMILES. pEC50: −log10 of the molar value. Like-named read-outs stand apart in the source and are kept apart here.

Turning to `CCOC(=O)C1=C2C[C@H](NS(=O)(=O)C(C)C)CN2C(c2nccs2)=N[C@H]1c1ccc(F)cc1Br` [Example 117], the pEC50 by setting is: under setting [1], greater than 7.00; under setting [2], greater than 7.00.

As to `CCOC(=O)C1=C2CN(C(=O)C3COC3)CCN2C(c2nccs2)=N[C@H]1c1ccc(F)cc1Br` [Example 118], the pEC50 by setting is: under setting [1], 6.30 to 7.00; under setting [2], 6.30 to 7.00.

For `CCOC(=O)C1=C2C[C@@H](CNC(C)=O)CN2C(c2nccs2)=N[C@H]1c1ccc(F)cc1Br` [Example 119], the pEC50 under setting [1] is greater than 7.00 and the pEC50 under setting [2] was greater than 7.00.

In the case of `CCOC(=O)C1=C2C[C@H](CNC(C)=O)CN2C(c2nccs2)=N[C@H]1c1ccc(F)cc1Br` [Example 120], the pEC50 reads like this: under setting [1], greater than 7.00; under setting [2], greater than 7.00.

Regarding `CCOC(=O)C1=C2C[C@H](CNS(=O)(=O)C3CC3)CN2C(c2nccs2)=N[C@H]1c1ccc(F)cc1Br` [Example 121], the pEC50 under setting [1] was greater than 7.00 and the pEC50 under setting [2] is greater than 7.00.

Regarding `CCOC(=O)C1=C2C[C@@H](CNS(=O)(=O)C3CC3)CN2C(c2nccs2)=N[C@H]1c1ccc(F)cc1Br` [Example 122], the pEC50 under setting [1] was 5.30 to 6.00 and the pEC50 under setting [2] is 5.30 to 6.00.

Turning to `CCOC(=O)C1=C2C[C@@H](NS(=O)(=O)C(F)F)CN2C(c2nccs2)=N[C@H]1c1ccc(F)cc1Br` [Example 123], the pEC50 runs as follows: under setting [1], greater than 7.00; under setting [2], greater than 7.00.

Regarding `CCOC(=O)C1=C2C[C@H](NS(=O)(=O)C(F)F)CN2C(c2nccs2)=N[C@H]1c1ccc(F)cc1Br` [Example 124], the pEC50 was greater than 7.00 under setting [1] and greater than 7.00 under setting [2].

Turning to `CCOC(=O)C1=C2C[C@H](NS(C)(=O)=O)CN2C(c2nccs2)=N[C@H]1c1ccc(F)cc1Cl` [Example 125], the pEC50 under setting [1] is greater than 7.00 and the pEC50 under setting [2] is greater than 7.00.

Turning to `CCOC(=O)C1=C2C[C@@H](NS(C)(=O)=O)CN2C(c2nccs2)=N[C@H]1c1ccc(F)cc1Cl` [Example 126], the pEC50 runs as follows: under setting [1], greater than 7.00; under setting [2], greater than 7.00.

`CCOC(=O)C1=C2C[C@@H](N(C)S(C)(=O)=O)CN2C(c2nccs2)=N[C@H]1c1ccc(F)cc1Br` [Example 127]: the pEC50 is, setting by setting: under setting [1], greater than 7.00; under setting [2], greater than 7.00.

With `CCOC(=O)C1=C2C[C@H](NS(=O)(=O)C(F)F)CN2C(c2nccs2)=N[C@H]1c1ccc(F)cc1Cl` [Example 128], the pEC50 reads like this: under setting [1], greater than 7.00; under setting [2], greater than 7.00.

Consider `CCOC(=O)C1=C2C[C@H](NS(=O)(=O)/C=C/F)CN2C(c2nccs2)=N[C@H]1c1ccc(F)cc1Cl` [Example 129], for which the pEC50 reads like this: under setting [1], greater than 7.00; under setting [2], greater than 7.00.

Regarding `CCOC(=O)C1=C2C[C@H](N3CCOCC3)CN2C(c2nccs2)=N[C@H]1c1ccc(F)cc1Cl` [Example 130], the pEC50 was greater than 7.00 under setting [1] and greater than 7.00 under setting [2].

On to `CCOC(=O)C1=C2C[C@H](N3CCCC3C(=O)OC)CN2C(c2nccs2)=N[C@H]1c1ccc(F)cc1Cl` (some centres unmarked) [Example 131], for which the pEC50 under setting [1] is 5.30 to 6.00 and the pEC50 under setting [2] is 5.30 to 6.00.

Consider `CCOC(=O)C1=C2C[C@H](NS(=O)(=O)c3cnn(C)c3)CN2C(c2nccs2)=N[C@H]1c1ccc(F)cc1Cl` [Example 132], for which the pEC50 is greater than 7.00 under setting [1] and greater than 7.00 under setting [2].

Regarding `CCOC(=O)C1=C2C[C@H](NC(=O)C(F)F)CN2C(c2nccs2)=N[C@H]1c1ccc(F)cc1Cl` [Example 133], the pEC50 under setting [1] is 6.30 to 7.00 and the pEC50 under setting [2] is 6.30 to 7.00.

With `CCOC(=O)C1=C2CN(Cc3ccc(OC)cc3)S(=O)(=O)CN2C(c2nccs2)=N[C@H]1c1ccc(F)cc1Br` [Example 134], the pEC50 by setting is: under setting [1], 5.30 to 6.00; under setting [2], 5.30 to 6.00.

Turning to `CCOC(=O)C1=C2CNS(=O)(=O)CN2C(c2nccs2)=N[C@H]1c1ccc(F)cc1Br` [Example 135], the pEC50 under setting [1] was 6.00 to 6.30 and the pEC50 (HepG2.2.15, read-out: BIOACTIVITY (inhibitory actions on HBV DNA, EC50), summary list of target compounds, Examples 1-165 (same as Table 2)) is 6.00 to 6.30.

Consider `CCOC(=O)C1=C2CN(C)S(=O)(=O)CN2C(c2nccs2)=N[C@H]1c1ccc(F)cc1Br` [Example 136], for which the pEC50 is, setting by setting: under setting [1], 6.00 to 6.30; under setting [2], 6.00 to 6.30.

Regarding `CCOC(=O)C1=C2C[C@H](C(=O)NS(=O)(=O)C(F)(F)F)CN2C(c2nccs2)=N[C@H]1c1ccc(F)cc1F` [Example 137], the pEC50 under setting [1] was 5.30 to 6.00 and the pEC50 under setting [2] was 5.30 to 6.00.

For the compound `CCOC(=O)C1=C2C[C@H](NS(C)(=O)=O)CN2C(c2nccs2)=N[C@H]1c1ccc(F)cc1F` [Example 138], the pEC50 under setting [1] was greater than 7.00 and the pEC50 under setting [2] was greater than 7.00.

On to `CCOC(=O)C1=C2C[C@H](NC(=O)C3COC3)CN2C(c2nccs2)=N[C@H]1c1ccc(F)cc1Cl` [Example 139], for which the pEC50 is 5.30 to 6.00 under setting [1] and 5.30 to 6.00 under setting [2].

In the case of `CCOC(=O)C1=C2C[C@H](N[S+]([O-])C(C)(C)C)CN2C(c2nccs2)=N[C@H]1c1ccc(F)cc1Cl` (some centres unmarked) [Example 140], the pEC50 is, setting by setting: under setting [1], 6.00 to 6.30; under setting [2], 6.00 to 6.30.

Regarding `CCOC(=O)C1=C2C[C@H](NS(C)(=O)=O)CN2C(c2nccs2)=N[C@@H]1c1ccc(F)cc1Cl` [Example 141], the pEC50 under setting [1] is 6.00 to 6.30 and the pEC50 under setting [2] was 6.00 to 6.30.

Consider `CCOC(=O)C1=C2C[C@H](NC(=O)C(F)(F)F)CN2C(c2nccs2)=N[C@H]1c1ccc(F)cc1Cl` [Example 142], for which the pEC50 was 6.30 to 7.00 under setting [1] and 6.30 to 7.00 under setting [2].

For `CCOC(=O)C1=C2C[C@H](NS(=O)(=O)CC(=O)O)CN2C(c2nccs2)=N[C@H]1c1ccc(F)cc1Cl` [Example 143], the pEC50 is 6.30 to 7.00 under setting [1] and 6.30 to 7.00 under setting [2].

As to `CCOC(=O)C1=C2C[C@H](NS(=O)(=O)C3COC3)CN2C(c2nccs2)=N[C@H]1c1ccc(F)cc1Cl` [Example 144], the pEC50 runs as follows: under setting [1], greater than 7.00; under setting [2], greater than 7.00.

Turning to `CCOC(=O)C1=C2C[C@H](NS(C)(=O)=O)CN2C(c2nccs2)=N[C@H]1c1ccc(F)cc1` [Example 145], the pEC50 reads like this: under setting [1], 6.00 to 6.30; under setting [2], 6.00 to 6.30.

In the case of `CCOC(=O)C1=C2[C@@H](NS(C)(=O)=O)CCN2C(c2nccs2)=N[C@H]1c1ccc(F)cc1Br` [Example 146], the pEC50 runs as follows: under setting [1], 5.30 to 6.00; under setting [2], 5.30 to 6.00.

Turning to `CCOC(=O)C1=C2[C@H](NS(C)(=O)=O)CCN2C(c2nccs2)=N[C@H]1c1ccc(F)cc1Br` [Example 147], the pEC50 is 5.30 to 6.00 under setting [1] and 5.30 to 6.00 under setting [2].

As to `CCOC(=O)C1=C2C[C@H](NS(C)(=O)=O)CN2C(c2nccs2)=N[C@H]1c1ccc(F)c(F)c1` [Example 148], the pEC50 is, setting by setting: under setting [1], 6.30 to 7.00; under setting [2], 6.30 to 7.00.

Consider `COC(=O)C1=C2C[C@H](NS(C)(=O)=O)CN2C(c2nccs2)=N[C@H]1c1ccc(F)cc1Cl` [Example 149], for which the pEC50 under setting [1] is greater than 7.00 and the pEC50 under setting [2] is greater than 7.00.

Take `CCOC(=O)C1=C2C[C@H](NS(C)(=O)=O)CN2C(c2nccs2)=N[C@H]1c1ccc(Cl)cc1F` [Example 150]: the pEC50 under setting [1] was 6.30 to 7.00 and the pEC50 under setting [2] is 6.30 to 7.00.

For `CCOC(=O)C1=C2C[C@H](NS(C)(=O)=O)CN2C(c2nccs2)=N[C@H]1c1ccc(Cl)cc1Cl` [Example 151], the pEC50 is greater than 7.00 under setting [1] and greater than 7.00 under setting [2].

Consider `CC(C)OC(=O)C1=C2C[C@H](NS(C)(=O)=O)CN2C(c2nccs2)=N[C@H]1c1ccc(F)cc1Cl` [Example 152], for which the pEC50 was 6.30 to 7.00 under setting [1] and 6.30 to 7.00 under setting [2].

`CCOC(=O)C1=C2C[C@H](NS(=O)(=O)C(F)(F)F)CN2C(c2nccs2)=N[C@H]1c1ccc(F)cc1Cl` [Example 153]: the pEC50 is greater than 7.00 under setting [1] and greater than 7.00 under setting [2].
